Laboratory results reported in patent US20130041142A1, “HUMAN SWEET TASTE RECEPTOR-ACTING SWEET TASTE REGULATING SUBSTANCE TO SWEET TASTE SUBSTANCE” (priority 2009, published 2013).
One block for each molecule: values may come before it. Peptide text beside a SMILES is read from it.

Target: T1, human sweet taste receptor (hT1R2+hT1R3) (Homo sapiens, UniProt Q7RTX0+Q8TE23)
T1 construct: includes all portions of respective subunits, that is, all regions of a transmembrane domain; pcDNA5/FRT construct co-transfected with pOG44
T1 sequence (Q8TE23 20-839): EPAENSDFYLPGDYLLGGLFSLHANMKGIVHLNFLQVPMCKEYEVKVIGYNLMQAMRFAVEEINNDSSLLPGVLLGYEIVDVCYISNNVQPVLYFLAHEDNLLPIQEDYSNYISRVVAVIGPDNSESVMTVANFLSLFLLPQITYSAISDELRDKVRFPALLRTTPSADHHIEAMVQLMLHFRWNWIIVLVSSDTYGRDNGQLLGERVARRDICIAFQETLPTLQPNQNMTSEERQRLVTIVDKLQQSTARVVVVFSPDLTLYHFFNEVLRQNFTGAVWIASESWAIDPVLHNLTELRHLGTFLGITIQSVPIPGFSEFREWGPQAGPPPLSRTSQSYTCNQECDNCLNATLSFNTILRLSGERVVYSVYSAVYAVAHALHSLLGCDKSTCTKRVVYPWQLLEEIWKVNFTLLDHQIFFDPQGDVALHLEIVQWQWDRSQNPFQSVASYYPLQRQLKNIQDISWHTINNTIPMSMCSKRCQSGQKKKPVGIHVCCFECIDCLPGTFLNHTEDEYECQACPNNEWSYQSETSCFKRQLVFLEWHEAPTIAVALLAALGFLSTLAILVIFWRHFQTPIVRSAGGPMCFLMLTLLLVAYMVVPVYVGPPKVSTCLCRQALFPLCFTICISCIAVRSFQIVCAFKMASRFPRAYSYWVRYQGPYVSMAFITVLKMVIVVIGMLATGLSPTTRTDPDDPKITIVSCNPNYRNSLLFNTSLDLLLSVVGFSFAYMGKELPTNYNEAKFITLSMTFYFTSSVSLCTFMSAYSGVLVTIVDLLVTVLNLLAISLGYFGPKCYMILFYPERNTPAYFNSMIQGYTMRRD
T1 sequence (Q7RTX0 21-852): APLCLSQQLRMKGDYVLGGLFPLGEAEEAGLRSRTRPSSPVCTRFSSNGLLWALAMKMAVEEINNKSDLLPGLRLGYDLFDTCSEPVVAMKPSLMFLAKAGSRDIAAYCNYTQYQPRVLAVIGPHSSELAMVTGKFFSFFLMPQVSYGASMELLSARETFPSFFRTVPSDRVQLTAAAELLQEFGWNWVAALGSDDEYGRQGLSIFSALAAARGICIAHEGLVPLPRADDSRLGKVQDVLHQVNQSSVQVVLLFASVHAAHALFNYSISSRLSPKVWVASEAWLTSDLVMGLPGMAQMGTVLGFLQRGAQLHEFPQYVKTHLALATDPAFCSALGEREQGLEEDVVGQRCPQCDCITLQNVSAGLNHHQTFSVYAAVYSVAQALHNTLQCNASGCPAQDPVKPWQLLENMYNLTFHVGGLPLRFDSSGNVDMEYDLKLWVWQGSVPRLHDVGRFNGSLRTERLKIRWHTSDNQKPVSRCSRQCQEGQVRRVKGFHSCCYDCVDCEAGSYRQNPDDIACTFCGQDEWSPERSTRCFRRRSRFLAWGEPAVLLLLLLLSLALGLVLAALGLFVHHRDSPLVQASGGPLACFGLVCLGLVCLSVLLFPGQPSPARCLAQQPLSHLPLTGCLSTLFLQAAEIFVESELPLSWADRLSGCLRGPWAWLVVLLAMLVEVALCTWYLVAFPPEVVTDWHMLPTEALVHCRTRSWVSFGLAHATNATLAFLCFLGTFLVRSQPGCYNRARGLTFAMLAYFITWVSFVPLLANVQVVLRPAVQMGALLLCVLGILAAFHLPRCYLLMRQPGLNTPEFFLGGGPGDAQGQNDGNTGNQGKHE
Experiment: automated fluorescent calcium imaging (Fluo-4 AM, FlexStation 3) of sweet taste receptor-expressing cells
Format: cell-based
Conditions: for Change amount in fluorescent intensity (ΔF): 27° C., to 100 seconds
Procedure: After cultured at 37° C. for 24 hours, the medium was removed, and replaced with 50 μl of a HEPES buffer, and […] of a HEPES buffer containing a fluorescent calcium indicator (Fluo-4 AM attached to Molecular Devices, FLIPR Ca 4 Assay Kit) was further added. Then, this was incubated at 27° C. for 45 minutes to prepare a cell to be subjected to automated fluorescent imaging. […]
In the same manner as that described above, […] subjected to automated fluorescent imaging, so that a final concentration of sucrose became a concentration described in Table 2, a HEPES buffer containing conc. neohesperidin dihydrochalcone was further added so that a final concentration of neohesperidin dihydrochalcone became 2 v/v %, stimulation was performed at 27° C., a fluorescent reaction (excitation at 485 nm, fluorescence at 525 nm) from immediately after addition of the solution to after 100 seconds was measured by using FlexStation 3 (Molecular Devices), and a response of a sweet taste receptor-expressing cell when neohesperidin dihydrochalcone was added to sucrose was quantitated. The vertical axis of FIG. 3 is a maximum (ΔF) of a change amount in a fluorescent intensity between immediately after stimulation and after 100 seconds from stimulation, that is, a response intensity of a cell, and the horizontal axis indicates a sucrose concentration (mM) as expressed by logarithm.

Change amount in fluorescent intensity (ΔF) (aspartame 0.167 mM alone): 6.568
Change amount in fluorescent intensity (ΔF) (aspartame 0.333 mM alone): 12.578
Change amount in fluorescent intensity (ΔF) (aspartame 0.667 mM alone): 33
Change amount in fluorescent intensity (ΔF) (aspartame 2 mM alone): 72.005
SMILES: COC(=O)[C@H](Cc1ccccc1)NC(=O)[C@@H](N)CC(=O)O [Aspartame, aspartame] (H-Asp-Phe-OMe)

Change amount in fluorescent intensity (ΔF) (saccharin 0.167 mM alone): 7.609
Change amount in fluorescent intensity (ΔF) (saccharin 0.333 mM alone): 22.936
Change amount in fluorescent intensity (ΔF) (saccharin 0.667 mM alone): 56.59
Change amount in fluorescent intensity (ΔF) (saccharin 2 mM alone): 86.194
SMILES: O=C1NS(=O)(=O)c2ccccc21 [Saccharin, saccharin]

Change amount in fluorescent intensity (ΔF) (sucrose 3.125 mM alone): 4.2
Change amount in fluorescent intensity (ΔF) (sucrose 6.25 mM alone): 4.6
Change amount in fluorescent intensity (ΔF) (sucrose 12.5 mM alone): 4.1
Change amount in fluorescent intensity (ΔF) (sucrose 25 mM alone): 5.7
Change amount in fluorescent intensity (ΔF) (sucrose 50 mM alone): 9.2
Change amount in fluorescent intensity (ΔF) (sucrose 100 mM alone): 23.3
Change amount in fluorescent intensity (ΔF) (sucrose 200 mM alone): 34.9
concentration below which a response of a sweet taste receptor cell is not observed (sucrose alone): around 50 mM
SMILES: OC[C@H]1O[C@@](CO)(O[C@H]2O[C@H](CO)[C@@H](O)[C@H](O)[C@H]2O)[C@@H](O)[C@@H]1O [Sucrose, sucrose]
